Reference: EPA's ToxValDB 9.5 (doi:10.2903/j.efsa.2007.117r)
≈ marks a conversion by molar mass, not a printed value.

What was measured:
Aphidius rhopalosiphi = conditions: chronic/long-term; mortality
Apis mellifera = conditions: acute; duration: 48 hours; oral; unspecified; mortality
Bibionidae = conditions: chronic/long-term; duration: 24 days; reproduction
Bird = conditions: for LD50: oral, mortality
Canidae = conditions: subchronic; duration: 90 days; oral; Dog Other
Daphnia magna = conditions: chronic/long-term; duration: 21 days; reproduction
Oryctolagus sp. = conditions: reproduction developmental; reproduction
Tagia sp. = conditions: acute; duration: 14 days; mortality

Q: NC1=C(Cl)C(=O)c2ccccc2C1=O [2-Amino-3-chloro-1,4-naphthoquinone] was tested. Which LEL (Aphidius rhopalosiphi) did it give?
A: 3810 g/ha

Q: And the LD50 (Apis mellifera)?
A: > 28 µg/piece

Q: And the NOEC (Bibionidae)?
A: 0.063 mg/L

Q: And the LD50 (Bird; acute, unspecified)?
A: > 2000 mg/kg-day

Q: And the NOAEL (Bird; chronic/long-term)?
A: 36.2 mg/kg-day

Q: What about the LD50 (Bird; short-term, feed) of the same compound?
A: 394 mg/kg-day

Q: And the NOAEL (Canidae)?
A: 3 mg/kg-day

Q: And the NOEC (Daphnia magna)?
A: 0.0021 mg/L

Q: What about the LC50 (Oncorhynchus mykiss; acute, duration: 96 hours, mortality) of the same compound?
A: 0.063 µg/mL (≈ 0.303 µM)

Q: And the NOEC (Oncorhynchus mykiss; chronic/long-term, duration: 21 days, behavior)?
A: 0.02 mg/L

Q: What about the NOAEL (Oryctolagus sp.) of the same compound?
A: 17.5 mg/kg-day

Q: And the LD50 (Rattus norvegicus; acute, oral, mortality)?
A: 500 mg/kg-day

Q: And the NOAEL (Rattus norvegicus; chronic, duration: 2 years, organ weight)?
A: 0.21 mg/kg-day

Q: What about the NOAEL (Rattus norvegicus; reproduction developmental, body weight) of the same compound?
A: 5 mg/kg-day

Q: And the LC50 (Tagia sp.)?
A: 125 mg/kg
